Experiment: physchem
[1] = LogPA (logP of the stated pure compound or, in a mixture, of the main isomer, 1-substituted 3-aryl-1H-pyrazole)

SMILES | chromatographic logP (pH 2.3, LogP (pH 2.3)) | chromatographic logP (pH 2.7, logP (pH 2.7)) | further results
COCCOCC(=O)Nc1cc(-c2cn(C)nc2-c2ccc(F)cc2)ccn1 [Compound 345] | – | – | chromatographic logP (LogPA): 1.96
CC1(C)OB(c2cn(CCCl)nc2-c2ccc(F)cc2)OC1(C)C [[V-10], 1-(2-Chloroethyl)-3-(4-fluorophenyl)-4-(4,4,5,5-tetramethyl-1,3,2-dioxaborolan-2-yl)-1H-pyrazole] | 4.06 | 4.06 | –
Fc1ccc(-c2nn(Cc3cccnc3)cc2-c2ccncc2)cc1 [Compound 100] | – | – | chromatographic logP [1]: 0.78
CC(C)On1cc(B2OC(C)(C)C(C)(C)O2)c(-c2ccc(F)cc2)n1 [[V-5], 3-(4-Fluorophenyl)-1-isopropoxy-4-(4,4,5,5-tetramethyl-1,3,2-dioxaborolan-2-yl)-1H-pyrazole] | 4.81 | 4.81 | –
CC(C)Cn1cc(Br)c(-c2ccc(F)cc2)n1 [[VI-4], 4-Bromo-3-(4-fluorophenyl)-1-isobutyl-1H-pyrazole] | 4.34 | 4.34 | –
Fc1ccc(-c2nn(C3CCCCO3)cc2-c2cc(N3CCOCC3)ncn2)cc1 (stereo not shown) [Compound 52] | – | – | chromatographic logP [1]: 1.49
CCCn1cc(Br)c(-c2ccc(F)cc2)n1 [[VI-14], 4-Bromo-3-(4-fluorophenyl)-1-propyl-1H-pyrazole] | 3.89 | 3.89 | –
CSc1nccc(-c2cn(C3CCCCO3)nc2-c2ccc(F)cc2)n1 (stereo not shown) [Compound 74] | – | – | chromatographic logP [1]: 3.58
CCC(=O)Nc1cc(-c2c(-c3ccc(F)cc3)nn(C(C)C)c2C(F)(F)F)ccn1 [Compound 304] | – | – | chromatographic logP (LogPA): 4.07
Fc1ccc(-c2n[nH]c(Br)c2-c2ccncc2)cc1 [[XXVIII-1], 4-[5-Bromo-3-(4-fluorophenyl)-1H-pyrazol-4-yl]pyridine] | – | 0.92 | –
CC(C)n1cc(-c2ccnc(NC(c3ccc(F)cc3)C(F)(F)F)c2)c(-c2ccc(F)cc2)n1 (stereo not shown) [Compound 324] | – | – | chromatographic logP (LogPA): 3.88
Cn1cc(B2OC(C)(C)C(C)(C)O2)c(-c2ccc(F)cc2)n1 [[V-9], 3-(4-Fluorophenyl)-1-methyl-4-(4,4,5,5-tetramethyl-1,3,2-dioxaborolan-2-yl)-1H-pyrazole] | 3.47 | 3.47 | –
COCC(=O)Nc1cc(-c2c(-c3ccc(Cl)cc3F)nn(C)c2C(F)(F)F)ccn1 [Compound 202] | – | – | chromatographic logP (LogPA): 3.45
CC(C)(C)OC(=O)N1CCC(n2cc(Br)c(-c3ccc(F)cc3)n2)CC1 [[VI-27], Tert-butyl 4-[4-bromo-3-(4-fluorophenyl)-1H-pyrazol-1-yl]piperidin-1-carboxylate] | 4.77 | 4.77 | –
c1ccc(Oc2ccc(-c3c(-c4ccncc4)cnn3C3CCCCO3)cc2)cc1 (stereo not shown) [[X-10], 4-[5-(4-phenoxyphenyl)-1-(tetrahydro-2H-pyran-2-yl)-1H-pyrazol-4-yl]pyridine] | 1.88 | – | –
O=C(Cc1ccncc1)c1c(F)cccc1F [[XXV-1], 1-(2,6-Difluorophenyl)-2-(pyridin-4-yl)ethanone] | – | 0.62 | –
COc1cc(F)ccc1-c1c(-c2ccncc2)cnn1C1CCCCO1 (stereo not shown) [Compound 64, 4-[5-(4-fluoro-2-methoxyphenyl)-1-(tetrahydro-2H-pyran-2-yl)-1H-pyrazol-4-yl]pyridine] | – | – | chromatographic logP [1]: 1.26
Fc1ccc(-c2c(-c3ccncc3)cnn2C2CCCCO2)cc1Cl (stereo not shown) [Compound 51, 4-[5-(3-chloro-4-fluorophenyl)-1-(tetrahydro-2H-pyran-2-yl)-1H-pyrazol-4-yl]pyridine] | – | – | chromatographic logP [1]: 1.57
COCCn1cc(B2OC(C)(C)C(C)(C)O2)c(-c2ccc(F)cc2)n1 [[V-2], 3-(4-Fluorophenyl)-1-(2-methoxyethyl)-4-(4,4,5,5-tetramethyl-1,3,2-dioxaborolan-2-yl)-1H-pyrazole] | 3.58 | 3.58 | –
O=C(Nc1ccccc1)c1cc(-c2cn(C3CCCCO3)nc2-c2ccc(F)cc2)ccn1 (stereo not shown) [Compound 94] | – | – | chromatographic logP [1]: 4.34
Fc1ccc(-c2[nH]nc(C3CC3)c2-c2ccncc2)cc1 [[IX-b-2], 4-[3-(4-Fluorophenyl)-5-cyclopropyl-1H-pyrazol-4-yl]pyridine] | – | 0.92 | –
CC(C)Nc1nccc(-c2c[nH]nc2-c2ccc(F)cc2)n1 [Compound 172] | – | – | chromatographic logP (LogPA): 1.37
Cc1[nH]nc(-c2ccc(F)cc2)c1-c1ccncc1 [[IX-b-1], 4-[3-(4-Fluorophenyl)-5-methyl-1H-pyrazol-4-yl]pyridine] | – | 0.6 | –
Nc1cc(-c2cn(CC(F)F)nc2-c2ccc(F)cc2)ccn1 [[III-4], 4-[1-(2,2-Difluoroethyl)-3-(4-fluorophenyl)-1H-pyrazol-4-yl]pyridin-2-amine] | 1.03 | 1.03 | –
CC(C)Cn1cc(-c2ccnc(S(C)(=O)=O)n2)c(-c2ccc(F)cc2)n1 [Compound 287] | – | – | chromatographic logP (LogPA): 2.9
CC(C)C(=O)Nc1nccc(-c2cn(C(C)C)nc2-c2ccc(F)cc2)n1 [Compound 355] | – | – | chromatographic logP (LogPA): 2.55
COC(=O)C(C(C)C)n1cc(Br)c(-c2ccc(F)cc2)n1 (stereo not shown) [[VI-16], Methyl 2-[4-bromo-3-(4-fluorophenyl)-1H-pyrazol-1-yl]-3-methylbutanoate] | 4.27 | 4.27 | –
Cn1cc(Br)c(-c2ccc(F)cc2)n1 [[V1-8], 4-Bromo-3-(4-fluorophenyl)-1-methyl-1H-pyrazole] | – | 2.86 | –

SMILES | chromatographic logP (pH 2.3, LogP (pH 2.3)) | chromatographic logP (pH 2.7, logP (pH 2.7)) | further results
Nc1cc(-c2cn(C3CCCCO3)nc2-c2ccc(F)cc2)ccn1 (stereo not shown) [Compound 39] | – | – | chromatographic logP [1]: 1.38
CC(C)n1cc(-c2ccnc(NC(=O)C3CC3)c2)c(-c2ccc(F)cc2)n1 [[I-c-1], N-{4-[3-(4-Fluorophenyl)-1-isopropyl-1H-pyrazol-4-yl]pyridin-2-yl}cyclopropanecarboxamide] | – | 2.07 | –
Fc1ccc(-c2nn(Cc3ccncc3)cc2-c2ccncc2)cc1 [Compound 121] | – | – | chromatographic logP [1]: 0.25
Fc1ccc(-c2n[nH]cc2Br)cc1 [[VII-I], 4-Bromo-3-(4-fluorophenyl)-1H-pyrazole] | – | 2.29 | –
CN(C)c1cccc(-c2c(-c3ccncc3)cnn2C2CCCCO2)c1 (stereo not shown) [[X-21], N,N-dimethyl-3-[4-(pyridin-4-yl)-1-(tetrahydro-2H-pyran-2-yl)-1H-pyrazol-5-yl]aniline] | 1.33 | – | –
CCNc1cc(-c2cn(C3CCCCO3)nc2-c2ccc(F)cc2)ncn1 (stereo not shown) [Compound 63] | – | – | chromatographic logP [1]: 1.42
CC(C)C(=O)Nc1cc(Br)ccn1 [[IV-c-1], N-(4-bromopyridin-2-yl)-2-methylpropanamide] | – | 2.09 | –
CCC(C)n1ncc(-c2ccncc2)c1-c1c(F)cccc1F (stereo not shown) [Compound 38] | – | – | chromatographic logP [1]: 1.9
CC(C)Cn1cc(-c2ccnc(N(C(=O)C(C)C)C(=O)C(C)C)n2)c(-c2ccc(F)cc2)n1 [Compound 188] | – | – | chromatographic logP (LogPA): 4.74
Cn1nc(-c2ccc(F)cc2O)c(Br)c1OC(F)F [[VI-c-1], 2-[4-Bromo-5-(difluoromethoxy)-1-methyl-1H-pyrazol-3-yl]-5-fluorophenol] | 3.48 | 3.48 | –
Fc1ccc(-c2c(-c3ccncc3)cnn2C2CCCCO2)c2ccccc12 (stereo not shown) [[X-3], 4-[5-(4-fluoro-1-naphthyl)-1-(tetrahydro-2H-pyran-2-yl)-1H-pyrazol-4-yl]pyridine] | 1.72 | – | –
CCOC(=O)Nc1cc(-c2cn(C(C)c3ccccc3F)nc2-c2ccc(F)cc2)ccn1 (stereo not shown) [Compound 263] | – | – | chromatographic logP (LogPA): 3.65
CC(C)n1cc(-c2ccnc(N)n2)c(-c2ccc(F)cc2)n1 [[III-a-1], 4-[3-(4-Fluorophenyl)-1-isopropyl-1H-pyrazol-4-yl]pyrimidin-2-amine] | – | 1.54 | –
Clc1ccc(-c2c(-c3ccncc3)cnn2C2CCCCO2)cc1 (stereo not shown) [[X-18], 4-[5-(4-chlorophenyl)-1-(tetrahydro-2H-pyran-2-yl)-1H-pyrazol-4-yl]pyridine] | 1.52 | – | –
CC1(C)OB(c2cn(OC3CCCC3)nc2-c2ccc(F)cc2)OC1(C)C [[V-6], 1-(Cyclopentyloxy)-3-(4-fluorophenyl)-4-(4,4,5,5-tetramethyl-1,3,2-dioxaborolan-2-yl)-1H-pyrazole] | 5.51 | 5.51 | –
CSc1nccc(-c2cn(C(C)C)nc2-c2ccc(F)cc2)n1 [[XL-1], 4-[3-(4-Fluorophenyl)-1-isopropyl-1H-pyrazol-4-yl]-2-(methylsulphanyl)pyrimidine] | – | 3.62 | –
Fc1ccc(-c2nn(-c3nnc(C(F)(F)F)s3)cc2-c2ccncc2)cc1 [Compound 111] | – | – | chromatographic logP [1]: 2.9
CC(C)n1nc(-c2ccc(F)cc2)c(Br)c1C(F)(F)F [[VI-24], 4-Bromo-3-(4-fluorophenyl)-1-isopropyl-5-(trifluoromethyl)-1H-pyrazole] | 5.51 | 5.51 | –
Fc1ccc(-c2nn(CC3CC3)cc2Br)cc1 [[VI-18], 4-Bromo-1-(cyclopropylmethyl)-3-(4-fluorophenyl)-1H-pyrazole] | 3.9 | 3.9 | –
CC(C)C(=O)Nc1cc(-c2cn(Cc3cccc(C#N)c3)nc2-c2ccc(F)cc2)ccn1 [Compound 308] | – | – | chromatographic logP (LogPA): 2.69
CCOCCn1cc(Br)c(-c2ccc(F)cc2)n1 [[VI-20], 4-Bromo-1-(2-ethoxyethyl)-3-(4-fluorophenyl)-1H-pyrazole] | 3.51 | 3.51 | –
COc1ccc(-c2nn(C3CCCCO3)cc2-c2cc(-n3cccn3)ncn2)cc1 (stereo not shown) [Compound 62] | – | – | chromatographic logP [1]: 3.32
Fc1ccc(-c2c(-c3ccncc3)cnn2C2CCCCO2)c(F)c1 (stereo not shown) [Compound 56, 4-[5-(2,4-difluorophenyl)-1-(tetrahydro-2H-pyran-2-yl)-1H-pyrazol-4-yl]pyridine] | – | – | chromatographic logP [1]: 1.35
NC(=O)c1cc(-c2cn(C3CCCCO3)nc2-c2cccc(Cl)c2)ccn1 (stereo not shown) [Compound 95] | – | – | chromatographic logP [1]: 2.93
CCC(=O)Nc1cc(-c2c(-c3ccc(Cl)cc3F)nn(C)c2C(F)(F)F)ccn1 [Compound 197] | – | – | chromatographic logP (LogPA): 3.32
CC(C)Cn1cc(-c2ccnc(NCc3ccccc3)n2)c(-c2ccc(F)cc2)n1 [Compound 182] | – | – | chromatographic logP (LogPA): 3.15
CC(C1CC1)n1cc(Br)c(-c2ccc(F)cc2)n1 (stereo not shown) [[VI-22], 4-Bromo-1-(1-cyclopropylethyl)-3-(4-fluorophenyl)-1H-pyrazole] | 4.43 | 4.43 | –
